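96-well plates; 48 h exposure; 5 concentrations. Endpoints by linear interpolation between flanking doses. Not reached: highest tested concentration assigned. GI50 = concentration required for 50% inhibition of growth. TGI: total growth inhibition.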
Key:
Assay in all cases: NCI-60 cell line screen, 48 h
OVCAR-4 ovarian = system: OVCAR-4 ovarian
LOX IMVI melanoma = system: LOX IMVI melanoma
KM12 colon = system: KM12 colon
SNB-75 CNS = system: SNB-75 CNS
UO-31 renal = system: UO-31 renal
OVCAR-8 ovarian = system: OVCAR-8 ovarian
SK-OV-3 ovarian = system: SK-OV-3 ovarian
COLO 205 colon = system: COLO 205 colon
IGROV1 ovarian = system: IGROV1 ovarian
PC-3 prostate = system: PC-3 prostate

Structure (SMILES) | GI50 (OVCAR-4 ovarian) [µM] | TGI (OVCAR-4 ovarian) [µM] | GI50 (LOX IMVI melanoma) [µM] | TGI (LOX IMVI melanoma) [µM] | GI50 (KM12 colon) [µM] | TGI (KM12 colon) [µM] | GI50 (SNB-75 CNS) [µM] | TGI (SNB-75 CNS) [µM] | GI50 (UO-31 renal) [µM] | TGI (UO-31 renal) [µM] | GI50 (OVCAR-8 ovarian) [µM] | TGI (OVCAR-8 ovarian) [µM] | GI50 (SK-OV-3 ovarian) [µM] | TGI (SK-OV-3 ovarian) [µM] | TGI (COLO 205 colon) [µM] | TGI (IGROV1 ovarian) [µM] | GI50 (COLO 205 colon) [µM] | GI50 (IGROV1 ovarian) [µM] | TGI (PC-3 prostate) [µM] | GI50 (PC-3 prostate) [µM]
CC1=CC[C@@H]2C(=O)C=CC=C[C@H]12.[C-]#[O+].[C-]#[O+].[C-]#[O+].[Fe] | > 100 | > 100 | > 100 | > 100 | > 100 | > 100 | 43.9 | > 100 | > 100 | > 100 | > 100 | > 100 | > 100 | > 100 |  |  |  |  |  | 
CC(C)=CC1(C)/C(=N\O)C(C)(CC(C)C)C(=O)N1O (stereo not drawn) |  | > 100 |  | > 100 |  | > 100 |  | > 100 |  | > 100 |  | > 100 |  | > 100 | > 100 | > 100 |  |  |  | 
Cc1ccc(Nn2c(SCC(=O)Nc3nc(-c4ccccc4)cs3)nc(C)c2C)cc1 | 2.13 | > 100 | 3.32 | 19.3 | 4.13 | 19.1 | 2.81 | > 100 | 2.89 | > 100 | 3.79 | > 100 | 10.6 | > 100 | 34.4 | > 100 | 3.98 | 4.59 |  | 
CCCCCC/C=C\CCCCCCCCCc1cccc(OC)c1O |  |  |  | > 100 |  | > 100 |  | > 100 |  | > 100 |  | > 100 |  | > 100 | > 100 | > 100 |  |  | > 100 | 
CC(C)CCCC(C)[C@H]1CCC2C3CC=C4C[C@@H](OC(=O)CC(CC(=O)[O-])C(=O)[O-])CC[C@]4(C)C3CC[C@@]21C.N.N.[Pt+4] (stereo partly drawn) | > 100 | > 100 | > 100 | > 100 |  |  | > 100 | > 100 |  |  | > 100 | > 100 |  |  | > 100 | > 100 | > 100 | > 100 |  | 
Cc1c(-c2cc(-c3ccccc3)n[nH]c2=O)c2ccccc2n1C |  | > 100 |  |  |  | > 100 |  | > 100 |  | > 100 |  | > 100 |  | > 100 | > 100 | > 100 |  |  |  | 
CCOC(=O)C1=C(Nc2cccc3ccccc23)OCC1=O |  | > 100 |  |  |  | > 100 |  | > 100 |  | > 100 |  | > 100 |  | > 100 | > 100 | > 100 |  |  |  | 
NC(=S)N/N=C1/C(=O)N(c2ccccc2)C(=O)C1C(=O)Nc1ccccc1 (stereo not drawn) |  | > 100 |  |  |  | > 100 |  | > 100 |  | > 100 |  | > 100 |  | > 100 | > 100 | > 100 |  |  |  | 
COc1ccc(C#CC2=C(Br)C(=O)OC2)cc1 | 2.46 | 11.4 | 6.42 | 14 | 3.05 | 11 | 1.29 | 16.6 | 16.9 | > 50 | 9.47 | 39 |  |  | 29.1 | > 50 | 2.56 | 26.8 | 29.8 | 11.6
CC(C)(C)CC(C)(C)c1cc2c(O)c(c1)Cc1cc(C(C)(C)CC(C)(C)C)cc(c1O)Cc1cc(C(C)(C)CC(C)(C)C)cc(c1O)Cc1cc(C(C)(C)CC(C)(C)C)cc(c1O)Cc1cc(C(C)(C)CC(C)(C)C)cc(c1O)Cc1cc(C(C)(C)CC(C)(C)C)cc(c1O)Cc1cc(C(C)(C)CC(C)(C)C)cc(c1O)Cc1cc(C(C)(C)CC(C)(C)C)cc(c1O)C2 |  | > 100 |  |  |  | > 100 |  | > 100 |  | > 100 |  | > 100 |  |  | > 100 | > 100 |  |  |  | 
CC(NNC(=S)N1CCN(c2ccccn2)CC1)c1cccc[n+]1[O-] (stereo not drawn) |  | > 100 |  | 39.1 |  | > 100 |  | > 100 |  | 82.3 |  | > 100 |  |  | > 100 | > 100 |  |  | > 100 | 
CN(C)C(=S)/N=C(\N)N(C)C |  | > 100 |  | > 100 |  | > 100 |  | > 100 |  | > 100 |  | > 100 |  | > 100 |  | > 100 |  |  |  | 
Nc1ncnc2c1N=CN(Oc1ccccc1)N2 |  | > 100 |  |  |  | > 100 |  | > 100 |  |  |  | > 100 |  | > 100 | > 100 | > 100 |  |  |  | 
O=C(/C=C/c1cc(O)ccc1O)c1ccc(Cl)cc1 |  |  | 18.4 | 48.4 | 31.8 | > 100 |  |  | 96.7 | > 100 | 57.2 | > 100 |  |  | > 100 | > 100 | 38.2 | > 100 | > 100 | 90.4
O=C(/C=C/c1ccco1)N1CCN(Cc2ccccc2)CC1 |  | > 100 |  | > 100 |  | > 100 |  | > 100 |  | > 100 |  | > 100 |  | > 100 |  | > 100 |  |  |  | 
C=CCC(O)c1cc(OC)ccc1OC (stereo not drawn) |  | > 100 |  | > 100 |  | > 100 |  | > 100 |  | > 100 |  | > 100 |  | > 100 | > 100 | > 100 |  |  |  | 
CC/C(=N/O)C(C)C(=O)CCC(=O)Nc1ccc(Cl)cc1 (stereo not drawn) |  | > 100 |  | > 100 |  | > 100 |  | > 100 |  | > 100 |  | > 100 |  | > 100 | > 100 | > 100 |  |  |  | 
CNC(=O)NCCCCC(NC(=O)OCc1ccccc1)C(=O)OCc1ccccc1 (stereo not drawn) |  | 46.5 |  | 31.3 |  | 71 |  | 41.6 |  | 32.7 |  | 67.2 |  | > 100 | 31.9 | 76.4 |  |  |  | 
CCSc1nc(N)c(C#N)c(-c2ccc(OC)c(OC)c2)c1C#N |  |  | 14.9 | 48.2 | 15.2 | > 50 |  |  | 15.9 | > 50 | 15.5 | 45.1 | 15.4 | > 50 | > 50 | 43.6 | 17.5 | 5.85 | > 50 | 10.4
NCCNc1nc2ccc(F)cc2c2c(=O)c3cc(F)ccc3sc12 | 2.6 | 8.01 | 1.72 | 3.13 | 1.81 | 3.46 | 0.138 | 5.02 | 1.34 | 11.3 | 2.06 | 4.6 | 5.44 | 20.9 |  | 2.37 |  | 1.04 | 2.85 | 1.48
